Results as given in patent US6677307B2, “TGF-α polypeptides, functional fragments and methods of use therefor” (Kaleidos Pharma, Inc., priority 1999, dated 2004).
Where two headings read alike, the source gives them in different places.

Columns and labels:
stem cells = assay: stimulation of cellular proliferation, 3H thymidine incorporation of stem cells; type: cell-based; details: loop peptides of human TGFα; compared to TGF-α 50 aa and 57 aa polypeptide; FIG. 2
Source text: Each of the three loop regions in human TGFα was investigated for TGFα-like biological activity, such as stimulation of cellular proliferation as measured by ^3H thymidine incorporation of stem cells. […] Accordingly, data from TGFα or TGF-α57 show what can be called “TGF-α activity” and that these are predictive of activity of the functional TGF-α peptide and similar functional TGF-α peptides embodied in the genus of formula I with or without the addition of a “tail” region of formula II.

[1] = system: human CD34 positive and CD38 negative cells; assay: liquid primary culture of human bone-marrow enriched CD34 cells; type: cell-based; details: positive control, 500 ng/ml
Experimental: An additional experiment investigated TGF-α activity (using TGF-α57) on human bone-marrow enriched CD34 cells. FACS-sorted human CD34 positive and CD38 negative cells were cultured in liquid primary cultures in Iscove's modified Dulbecco's media with supplements. […] Stem Cell Factor (SCF) was used as a positive control (500 ng/ml) and provided a three-fold increase in CD34 positive cells. When a combination of SCF (500 ng/ml) and TGFα (10 ng/ml) was added, a synergistic 12-fold increase in CD34 positive cells was observed.

mouse intestines = assay: histological examination of intestines of CP-treated mice; type: in vivo; details: CP treatment; 50 μg/kg; FIG. 4
Experimental: The experiment procedure dosed those animals to be treated with TGFα 57 4 hours prior to challenge with CP. A single dose of CP was administered. Additional doses (as indicated) of TGFα 57 were made at 24 hours, 48 hours, 72 hours and 96 hours after the CP dose. All doses were made by IP injection. Controls were dosed with saline instead of either or both of CP and TGF-α57.
The animals were sacrificed about 4 hours after the last TGF-α57 (or saline) dose. Key organs were removed and spleens were immediately weighed after a clean incision. All the relevant organs were placed in formalin, transported for histopathological analysis, mounted, sectioned, stained and observed. The results of this histological analysis of the spleens for hematopoietic effect and the GI tract (below) provided surprising and unexpected data of the effect of TGF-α57 activity.
TGFα or a peptide from formula I, formula II, formula III, formula IV, formula V, or formula VI having TGFα activity or combinations thereof are also useful for treating mucositis associated intestinal bleeding, dyspepsia caused by with cytotoxic therapy and for improving the barrier function of the GI tract compromised by cytotoxic therapy. The in vivo experiment with seven groups of mice described above for hematopoietic effects noted in spleens also examined the GI tract of these treated mice. […] A single row of intestinal crypt is found at the base of the mucosa. These crypts that lie between adjacent villi are surrounded by the same lamina propria that form the villous cores. Both columnar absorptive cells and goblet cells cover the villous surfaces. The goblet cells contain apical clear vacuoles. […] Specifically, the villus was long and slender. Both absorptive cells and goblet cells were visible at the surface of the villi, and there was an abundant amount of goblet cells on the surface.
A 160×magnification of the intestines of a CP-treated mouse, a normal mouse and a CP treated and TGFα57 treated mouse at the same doses as described above. […] The crypts were irregularly shaped and in had various heights. […] The crypts also appeared normal.
Red cells were visible at the damaged surface indicating intestinal bleeding. […] Globlet cells appeared interspersed, necrotic and fewer in number than normal. […] Specifically, the epithelial cells appeared normal with extended brush borders. The nuclei were very densely stained and elongated.
The histological data is summarized in FIG. 4 that measured average crypt height of the three groups of mice.
An alcian blue staining method permitted differentiation of absorptive cells and goblet cells. Goblet cell mucus is stained a blue color while the absorptive cells remain less stained. […] In the normal intestine each villus extended from the luminal surface to the basal muscularis mucosal surface. Goblet cells were scattered and predominated in the base of the villus whereas columnar absorptive cells lined the luminal surface. […] The injured absorptive and goblet cells were degenerating at the tip of the villi and abundant secretory mucus material was stained in the luminal surface. In the CP/TGF-α mouse, there were an increased number of goblet cells scattered throughout the villi. The intestinal villi appeared normal with elongation. […] The luminal plasma membranes of the villi were well protected by TGF-α treatment. The number of goblet cells was counted on the average unit length of intestine.

[2] = system: immune cells (T cell lineage), mast cells; assay: immune cells, mast cells and cytokines in vivo after CP; parameters: species or system mice; details: in vivo
Source text: The stimulated immune cells were phenotypically identified as CD4 positive T cells and double null CD4 negative CD8 negative T cell progenitors. […] The in vivo activity of TGFα (and the functional peptides of formula I, formula II, formula III, and formula IV) to stimulate early T cell progenitors in the release of TH-1 and TH-2 cytokines and this regulation of immune phenomena. The stimulation of select immune cells, in particular cells of a T cell lineage, was seen consistently in the mice who received CP and TGF-α57 in lymphoid tissue, Peyers Patches and the spleen. Further, recruitment of help via CD4 cells in some cases boosts immune system function in general.
This is a parallel activity that is in addition to the gastrointestinal anti-inflammatory activity and prevention of mucositis of TGFα (and the functional peptides of formula I, formula II, formula III, and […]) described herein.

[3] = system: chronic inflammatory-like gastrointestinal symptoms; type: in vivo, non-human primate; parameters: wt.: unit not given here; details: for wt.: non-human primate, 300 μg/kg ip once, then 50 μg/kg S.C. 6 days
Experimental: (§1) In addition, studies of TGF-α for the treatment of diarrhea in non-human primates was also performed. […] This weight gain was maintained at least for several weeks post treatment. In addition, the reduction of SEGs (see column 6, Table 1) neutrophils correlates with reduction in inflammation associated with neutrophil influx and concomitant pro-inflammatory cytokines.

[4] = type: in vivo; details: non-human primate, 300 μg/kg ip once, then 50 μg/kg S.C. 6 days
Experimental: as §1

[5] = cited from earlier work
[6] = system: EGF receptor family (e.g., ErbB1 through 4); details: background statement; cited from earlier work
[7] = acid and heat; background statement; cited from earlier work

Loop A: loop peptide region of TGFα, amino acids 1-21 starting at the N terminus (VVSHFNDCPDSHTQFCFHGTC)
TGF-α biological activity (stimulation of cellular proliferation) (stem cells): Only Loop C showed significant TGF-α activity

Loop B: loop peptide region of TGFα, amino acids 16 to 32 (CFHGTCRFLVQEDKPAC)
TGF-α biological activity (stimulation of cellular proliferation) (stem cells): Only Loop C showed significant TGF-α activity

Loop C: loop peptide region of TGFα, amino acids 33 to 50; TGF-α mimetic peptide (VCHSGYVGARCEHADLLA)
TGF-α biological activity (stimulation of cellular proliferation) (stem cells): significant TGF-α biological activity

SCF: Stem Cell Factor, used as a positive control [reference compound]
increase in CD34 positive cells [1]: three-fold

TGF-α: human transforming growth factor alpha, 50 amino acid polypeptide with three disulfide bonds, SEQ ID NO:1
average crypt height (mouse intestines): more-than-restore crypt height loss
IL-6 and MIP [2]: downregulating IL-6 and MIP
TNF-α receptors [2]: downregulating TNF-α receptors
mast cell degranulation and histamine release [2]: prevented mast cell degranulation and subsequent histamine release
neutrophil trafficking [2]: blocking neutrophil trafficking
stool consistency ([3]; 300 μg/kg intraperitoneally once, then 50 μg/kg S.C. for 6 days): steady increase in stool consistency
wt. ([3]; Time 1): 5.80
wt. ([3]; Time 2): 6.33
wt. ([3]; Time 3): 6.74
wt. ([3]; Time 4): 8.21
wt. ([3]; Time 5): 8.93
wt. ([3]; Time 6): 9.42
weight ([3]; through the treatment period, 300 μg/kg intraperitoneally once, then 50 μg/kg S.C. for 6 days): steady weight gain
CD4^+ ([4]; Time 1): 28.4%
CD8^+ ([4]; Time 1): 56.3%
Dual CD8^+ CD4^+ ([4]; Time 1): 6.7%
Seg ([4]; Time 1): 76%
Seg ([4]; Time 2): 69%
CD4^+ ([4]; Time 3): 36.7%
CD8^+ ([4]; Time 3): 53.1%
Dual CD8^+ CD4^+ ([4]; Time 3): 6.3%
Seg ([4]; Time 3): 61%
CD4^+ ([4]; Time 4): 31.3%
CD8^+ ([4]; Time 4): 54.0%
Dual CD8^+ CD4^+ ([4]; Time 4): 9.1%
Seg ([4]; Time 4): 48%
CD4^+ ([4]; Time 5): 33.4%
CD8^+ ([4]; Time 5): 49.8%
Dual CD8^+ CD4^+ ([4]; Time 5): 8.1%
Seg ([4]; Time 5): 46%
CD4^+ ([4]; Time 6): 35.1%
CD8^+ ([4]; Time 6): 50.3%
Dual CD8^+ CD4^+ ([4]; Time 6): 7.7%
Seg ([4]; Time 6): 56%
estimated pKa of the lysine 29 ε amino [5]: 10.4
binding affinity [6]: high affinity in the nanomolar range
stability [7]: acid and heat stable
